# From patent US20260258333A1, “MULTI-ORGAN "BODY ON A CHIP" APPARATUS UTILIZING A COMMON MEDIA” (Wake Forest University Health Sciences, priority 2016, published 2026)
# Where two headings read alike, the source gives them in different places.
# Experiments:
# liver organoids [1] = assay: Liver on a chip: acetaminophen toxicity and N-acetyl-L-cysteine countermeasure; format: cell-based, human; details: for albumin and urea output into media: APAP 1 or 10 mM, NAC 20 mM with 10 mM APAP
# Description: FIG. 13. […] Viability as determined by LIVE/DEAD staining on day 14. Organoids were exposed to panel a) a 0 mM APAP control, panel b) 1 mM APAP, panel c) 10 mM APAP, or panel d) 10 mM APAP with 20 mM N-acetyl-L-cysteine. Green—Calcein AM-stained viable cells; Red—Ethidium homodimer-stained dead cells. […] Quantification of panel e) human albumin, panel f) urea, panel g) lactate dehydrogenase, and panel h) alpha-GST. […] Statistical significance: *p<0.05 between control and APAP; # p<0.05 APAP+NAC and APAP.
# [2] = test system: cardiac organoids, 2D iPS-derived cardiomyocytes, 2D C2C12
# Description: (§4) Comparison of ATP activity in response to drug screens of FDA-recalled drugs between 3D liver and cardiac organoids, 2D hepatocyte and cardiomyocyte cultures, and 2D HepG2 and C2C12 cell line cultures. Panels a-d) ATP activity of liver organoids, 2D primary human hepatocytes, and 2D hepG2 cell line cultures in response to panel a) troglitazone, panel b) mibefradil, panel c) bromfenac, and panel d) tielinic acid. Panels e-i) ATP activity of cardiac organoids, 2D iPS-derived cardiomyocytes, and 2D C2C12 cell line cultures in response to panel e) astemizole, panel f) pergoglide, panel g) terodiline, panel h) rofecoxib, and panel i) valdecoxib. Comparisons between groups were normalized to the no drug baseline ATP activity levels. Statistical significance: *p<0.05, 3D organoids versus both 2D cultures; #p<0.05, 2D hepatocytes/cardiomyocytes versus both 3D organoids and 2D cell lines; $ p<0.05, 2D cell line versus both 3D organoids and 2D hepatocytes/cardiomyocytes.
# (§5) In comparison to 3D organoid systems, we also screened these drugs using 2D primary hepatocyte and iPS cardiomyocyte cultures, and 2D hepg2 hepatoma cells and C2C12 myoblast cultures. […] In order to allow comparisons between the different cell model form factors, which employed different numbers of cells (liver organoids—1500; cardiac organoids—2500; 2D hepatocytes—20000; 2D cardiomyocytes—12500; HepG2 and C2C12 cultures—20000), ATP levels were normalized to no drug baseline levels.
# cardiac organoids [3] = test system: cardiac organoids
# Description: FIG. 14. […] Panel a) Beating output under baseline conditions, from which beating rate is determined. Panels b-e) Change in cardiac organoid beat rate resulting from exposure to panel b) isoproterenol, or panel c) quinidine. Panels d-e) Cardiac organoid response to epinephrine and propranolol.
# FIG. 19. Assessment of cardiac organoid beating kinetics in response to panel a) astemizole, panel b) pergoglide, and panel c) terodiline.
# It should be noted that most drugs that are recalled for causing cardiac toxicity are not actually recalled due to cardiac cell death, but rather for causing changes in cardiac function, such as beating kinetics. While 2D cardiomyocyte cultures can maintain beating activity, consistency and reproducibility can be difficult to maintain. […] These facts make it more difficult to compare beating kinetics between these cell model types.
# [4] = marketed use in patients; cited from earlier work
# [5] = test system: liver organoids, 2D primary human hepatocytes, 2D HepG2; assay: ATP activity, 3D liver organoids versus 2D hepatocyte and 2D HepG2 cultures; format: cell-based; details: ATP normalized to no drug baseline
# Description: as §4, §5
# liver organoids [6] = assay: LIVE/DEAD staining of 3D liver organoids, FDA-recalled drug screen; format: cell-based, human; details: increasing drug concentration (troglitazone 0-3 μM, mibefradil 0-100 μM)
# Excerpt: Unfortunately, many drugs have made it through preclinical studies and clinical trials, after which they existed on the market, for years in some cases, before being recalled by the Food and Drug Administration (FDA) for having toxic effects in humans. […] These include liver toxins troglitazone, mibefradil, bromfenac, and tienilic acid, as well as cardiac toxins, astemizole, pergoglide, terodiline, rofecoxib, and valdecoxib.
# [7] = test system: cardiac organoids, 2D iPS-derived cardiomyocytes, 2D C2C12; assay: ATP activity, 3D cardiac organoids versus 2D iPS cardiomyocyte and 2D C2C12 cultures
# Description: as §4, §5
# [8] = test system: liver, cardiac, lung, testis, and brain organoids
# Description: Aim of Experiment: To assess dependence of multi organoid toxicity on liver organoid metabolic function.
# At this point, the liver modules were removed from half of the platforms. Capecitabine (20 μM) was administered to all platforms after which viability was assessed through live/dead staining or cardiac beating behavior after 7 days of exposure (day 14 of total study).
# [9] = test system: liver, cardiac, lung, testis, and brain organoids; remark: listed apart in the source
# Description: A microfluidic platform having a miniaturized footprint and fluid volume was prepared and it was assessed whether the same complex drug studies are possible on this platform.
# As with the full-scale platform described in Example 4, five tissue constructs were initiated containing liver, cardiac, lung, testis, and brain organoids and maintained for 7 days prior to the start of the drug study. At this point, the liver modules were removed from half of the platforms. Capecitabine (20 uM) was administered to all platforms after which viability was assessed through live/dead staining or cardiac beating behavior after 7 days of exposure (day 14 of total study).
# cardiac organoids [10] = test system: cardiac organoids; remark: listed apart in the source
# Excerpt: (§1) In the human body, organs interact with one another in complex ways. […] The modular nature of the fluidic system was employed to construct such a platform. Real-time visual monitoring of cardiac organoids was achieved using an onboard LED and camera system that was customized to integrate with the cardiac construct microreactor housing (FIG. 6, panel a) ^32. This system allowed real time video capture (FIG. 6, panel b). Using custom written MatLab code with a series of MatLab functions, moving pixels in each frame were determined against time, generating a binary representation of beat propagation (FIG. 6, panel c) and plots visualizing beating rates.
# (§2) Effects of epinephrine and propranolol were first tested independently with a cardiac-only system or the tandem system, before being tested jointly in both systems.
# (§3) Next, the interplay between both drugs in the cardiac-only and tandem systems was assessed. […] Beating plots for each condition are depicted in FIG. 6, panels f-i.
# [11] = test system: cardiac organoids downstream of liver construct
# Excerpt: as §1, §2, §3
# cardiac organoids [12] = details: preliminary results, FIG. 22
# Description: Following compound exposures, organoids were assessed for viability with LIVE/DEAD staining or ATP activity.
# vascular endothelium = details: confluent monolayers, 100 μM histamine from 20 min, at 45 min; 50-90 RFUs before histamine
# Description: New vascular modules were prepared with either fully confluent endothelial layers or non-confluent layers. For this experiment, liver organoids were immobilized in liver-specific bioink, as described, in the bottom chamber of the modules (FIG. 3, panel f). These were imaged in parallel to the mass transport experiment by macro-confocal microscopy, showing the endothelium on the semi-porous membrane (membrane not visible) and the 3D liver organoid below (FIG. 3, panel g). Importantly, for the mass transport experiment, the bioink also contained a soluble fluorescent dye consisting of soluble 15 kDa gelatin conjugated with Alexa Fluor 594 maleimide tags in media. Upon addition of the liver organoids, bioink, and dye in the bottom chamber of the device, devices were sealed, and experiments were initiated. Modules were maintained under 25 μL/min flow with normal media coming from a media reservoir, during which aliquots from the outlet ports were collected every 5 minutes. […] Aliquots were analyzed following the experiment for fluorescent intensity.
# [13] = test system: vascular endothelium (human umbilical vein endothelial cells); details: 100 μM histamine, constant for 10 minutes; normal media about 0.54 kΩ
# Description: The goal of our work was to develop a highly functional microfluidic perfusion-driven six-tissue body-on-a-chip system, containing representations of liver, heart, vasculature, lung, testes, and colon (FIG. 1, panels A-B). Importantly, these individual tissue types would be constructed in modular microfluidic hardware devices, or microreactors (FIG. 1, panel B), formed by conventional polydimethyl-siloxane (PDMS) soft lithography and molding, ^11,30,31 allowing simple “plug and play” capabilities for platform initialization. […] Because of the specific individual requirements of each type of tissue model, a toolbox of biofabrication techniques was employed to create each tissue model (FIG. 1, panels C-E). Briefly, using hanging drop methodology, spherical liver organoids were formed with primary human hepatocytes, stellate cells, and Kupffer cells, spherical cardiac organoids and testes organoids were formed using human induced pluripotent stem (iPS) cells. These spherical organoids were then bioprinted (FIG. 7) into the microreactors using a liver ECM-derived bio-ink, a fibrin and gelatin bio-ink, and a hyaluronic acid (HA) and gelatin bio-ink, employing crosslinking of the hydrogel bio-inks to immobilize the organoids as larger hydrogel-organoid constructs within the perfusion system. […]
structure (smiles),measurement,setting,value
"CC(=O)Nc1ccc(O)cc1 [APAP, acetaminophen]",albumin and urea output into media,liver organoids [1],negatively affected
same,LDH and alpha-GST in media,liver organoids [1]; APAP treatment,elevated levels
COc1ccc(CCN2CCC(Nc3nc4ccccc4n3Cc3ccc(F)cc3)CC2)cc1 [Astemizole],"sensitivity by ATP activity, 3D cardiac organoids compared to the 2D systems",[2],significantly more sensitive
same,beating kinetics of 3D cardiac organoids,cardiac organoids [3],detrimental changes in beating kinetics
same,Site of Primary Toxicity,[4],Heart
Nc1c(CC(=O)O)cccc1C(=O)c1ccc(Br)cc1 [Bromfenac],Site of Primary Toxicity,[4],Liver
same,"sensitivity by ATP activity, 3D organoids and 2D hepatocyte cultures in comparison to 2D HepG2 cultures",[5],slightly more resistant
COCC(=O)O[C@]1(CCN(C)CCCc2nc3ccccc3[nH]2)CCc2cc(F)ccc2[C@@H]1C(C)C [Mibefradil],Site of Primary Toxicity,[4],Liver
same,"cell death, LIVE/DEAD",liver organoids [6],increases in cell death
same,"sensitivity by ATP activity, 3D organoids and 2D hepatocyte cultures in comparison to 2D HepG2 cultures",[5],more sensitive
"CC(=O)N[C@@H](CS)C(=O)O [NAC, N-acetyl-L-cysteine]","viability, LIVE/DEAD staining on day 14",liver organoids [1]; 10 mM APAP with 20 mM N-acetyl-L-cysteine,rescued
same,albumin and urea output into media,liver organoids [1],decreases this reduction in secretion
CCCN1C[C@H](CSC)C[C@@H]2c3cccc4[nH]cc(c34)C[C@H]21 [Pergoglide],"sensitivity by ATP activity, 3D cardiac organoids compared to the 2D systems",[2],significantly more sensitive
same,beating kinetics of 3D cardiac organoids,cardiac organoids [3],detrimental changes in beating kinetics
same,Site of Primary Toxicity,[4],Heart
CS(=O)(=O)c1ccc(C2=C(c3ccccc3)C(=O)OC2)cc1 [Rofecoxib],Site of Primary Toxicity,[4],Heart
same,"sensitivity by ATP activity, 2D cardiomyocyte cultures compared to 3D organoids and 2D C2C12 cultures",[7]; only at low to medium drug concentrations,increased sensitivity
CC(CC(c1ccccc1)c1ccccc1)NC(C)(C)C (centres unmarked) [Terodiline],beating kinetics of 3D cardiac organoids,cardiac organoids [3],detrimental changes in beating kinetics
same,Site of Primary Toxicity,[4],Heart
same,"sensitivity by ATP activity, 3D cardiac organoids compared to the 2D systems",[7]; only at the highest concentration of 100 μM,slightly more sensitive
O=C(O)COc1ccc(C(=O)c2cccs2)c(Cl)c1Cl [Tienilic Acid],Site of Primary Toxicity,[4],Liver
same,"sensitivity by ATP activity, 3D organoids versus both 2D systems",[5],did not experience significantly different responses
Cc1c(C)c2c(c(C)c1O)CCC(C)(COc1ccc(CC3SC(=O)NC3=O)cc1)O2 (centres unmarked) [Troglitazone],Site of Primary Toxicity,[4],Liver
same,"cell death, LIVE/DEAD",liver organoids [6],increases in cell death
Cc1onc(-c2ccccc2)c1-c1ccc(S(N)(=O)=O)cc1 [Valdecoxib],"sensitivity by ATP activity, 2D cardiomyocyte cultures compared to 3D organoids and 2D C2C12 cultures",[2],increased sensitivity
same,Site of Primary Toxicity,[4],Heart
CCCCCOC(=O)Nc1nc(=O)n([C@@H]2O[C@H](C)[C@@H](O)[C@H]2O)cc1F [capecitabine],metabolism of the prodrug,[8],this metabolism does not occur
same,metabolism of the prodrug,"[8]; human, 7 days, 20 μM",metabolized into the toxic drug 5-FU
same,metabolism of the prodrug,[9],this metabolism does not occur
same,metabolism of the prodrug,"[9]; human, 7 days, 20 uM",metabolized into the toxic drug 5-FU
CNC[C@H](O)c1ccc(O)c(O)c1 [epinephrine],increase in beating rate,"cardiac organoids [10]; epinephrine only, 0.5 μM",~ 40%
same,increase in cardiac BPM after epinephrine,"cardiac organoids [10]; experimental controls, no propranolol prior to epinephrine",1.5 fold
same,increase in BPM after epinephrine,"[11]; Group 2, liver component present, 0.1 μM propranolol then 0.5 μM epinephrine",1.25 fold
same,response relative to control epinephrine-only response,"[11]; Group 2, liver organoids, propranolol then epinephrine",approximately 50%
same,restoration of the epinephrine-induced increase in beat rate,[11]; Group 2 conditions with 2D hepatocyte culture (1-2 million cells) in place of 3D liver organoids,failed to achieve any restoration
same,increase in beating rate,"[11]; epinephrine only, 0.5 μM, liver component present, p<0.05",~30%
same,epinephrine concentration at which beat rate increase reaches a plateau,cardiac organoids [3],≥ 5 µM
same,dose dependent increase in beat rate,cardiac organoids [3]; increasing epinephrine concentration,1 to 2 fold
O=C(O)CNCP(=O)(O)O [glyphosate],ATP activity,cardiac organoids [12],decreases in ATP activity
NCCc1c[nH]cn1 [histamine],fluorescent intensity of outlet aliquots (dye transfer),vascular endothelium,~200 RFUs
same,resistance across endothelium layers (TEER),[13],approximately 0.4 kΩ
"[Cl][Pb][Cl] [lead, lead chloride]",ATP activity,cardiac organoids [12],decreases in ATP activity
CC(C)NCC(O)COc1cccc2ccccc12 (centres unmarked) [propranolol],effect of propranolol on response to 0.5 μM epinephrine,"cardiac organoids [10]; Group 1, no liver organoids, 0.1 μM propranolol first",successfully blocked the beta-adrenergic effects
same,decrease in beating rate,"cardiac organoids [10]; propranolol only, 0.1 μM, p<0.05",~ 10%
same,change in beating rate,"[11]; propranolol only, 0.1 μM, liver construct present",no decrease in beating rate
same,beating rate after administration of 5 μM epinephrine,cardiac organoids [3]; initial incubation with propranolol 0 to 20 μM,dose dependent decrease in beating rate
"O=[N+]([O-])[O-].[Tl+] [thallium, thallium nitrate]",ATP activity,cardiac organoids [12],decreases in ATP activity
